Source: patent US20100305174A1, “Novel Heterocyclic Derivatives” (ORCHID RESEARCH LABORATORIES LIMITED, priority 2005, published 2010)
Read-outs that look alike come from different tables or passages of the source.

Legend:
[1] = system: streptozotocin induced diabetic mice; assay: Antidiabetic activity in streptozotocin induced diabetic mice; assay type: in vivo, Swiss albino mice; design: key to % Reduction Cholesterol / % Reduction Triglycerides / % Reduction Glucose: NR=No Reduction; conditions: 50 mg/kg oral, 7 days, plasma, compared to control group; for inhibition in vivo at 50 mg/kg: Mus musculus, 168 h
Method: Swiss albino mice of either sex were used in the study at the age of 10 weeks. Diabetes was induced in animals by injecting streptozotocin by i.p. route at a dose of 200 mg/kg body weight. 48 hours after streptozotocin administration, the animals were kept for fasting for 6 hours and blood was collected and plasma separated and glucose was estimated. Animals showing greater than 200 mg/dl glucose levels were considered as diabetic and these animals were randomly distributed into various groups. The compounds listed in the table 3 were administered at a dose of 50 mg/kg body weight by oral route for 7 days. Later animals were fasted for 6 hours and blood was collected and plasma separated. Biochemical estimations like glucose, cholesterol and triglycerides were carried out using the plasma. The effect of compounds mentioned in the table was expressed in terms of percentage reduction in biochemical values as compared to control group.

TNF-α = TNF-α inhibition in LPS-challenged human PBMC; assay type: cell-based; conditions: Homo sapiens, PBMC, LPS 100 ng/mL, 20 hours, read-out: % Inhibition TNF alpha
Method: Human PBMC cells were cultured and incubated with compounds listed in table-4 at 1 and 10 μM concentrations. Cells (1×10^6/mL) were challenged with lipopolysaccharides (LPS) at a concentration of (100 ng/mL) for 20 hours. Cell supernatant was analyzed for the presence of TNF-α, IL-1β and IL-6 cytokines by antibody directed enzyme-linked immunoassay.

DPP IV = biological target: T1, DPP IV (Homo sapiens, UniProt P27487); assay: DPP IV assay (human plasma as source, H-gly-pro AMC substrate); assay type: biochemical; conditions: compared to vehicle control
T1 construct: using human plasma as a source of DPP IV; from tissue; host or cells: human plasma
Method: DPP IV assay is carried by using human plasma as a source of DPP IV. The compounds were incubated at a concentration of 1 and 10 μM in assay buffer containing DPP IV enzyme. The compounds were incubated for 1 hr and then the substrate H-gly-pro AMC was added and further incubated for 20 min and then the reaction was stopped on addition of 25% glacial acetic acid. The plates were read in a spectrofluorimeter to get RFU on setting excitation wavelength of 360 nm and emission wavelength of 460 nm. Percentage inhibition is calculated as compared to vehicle control.

[2] = read-out: % Reduction Triglycerides

T1 sequence (P27487 39-766 limits assumed): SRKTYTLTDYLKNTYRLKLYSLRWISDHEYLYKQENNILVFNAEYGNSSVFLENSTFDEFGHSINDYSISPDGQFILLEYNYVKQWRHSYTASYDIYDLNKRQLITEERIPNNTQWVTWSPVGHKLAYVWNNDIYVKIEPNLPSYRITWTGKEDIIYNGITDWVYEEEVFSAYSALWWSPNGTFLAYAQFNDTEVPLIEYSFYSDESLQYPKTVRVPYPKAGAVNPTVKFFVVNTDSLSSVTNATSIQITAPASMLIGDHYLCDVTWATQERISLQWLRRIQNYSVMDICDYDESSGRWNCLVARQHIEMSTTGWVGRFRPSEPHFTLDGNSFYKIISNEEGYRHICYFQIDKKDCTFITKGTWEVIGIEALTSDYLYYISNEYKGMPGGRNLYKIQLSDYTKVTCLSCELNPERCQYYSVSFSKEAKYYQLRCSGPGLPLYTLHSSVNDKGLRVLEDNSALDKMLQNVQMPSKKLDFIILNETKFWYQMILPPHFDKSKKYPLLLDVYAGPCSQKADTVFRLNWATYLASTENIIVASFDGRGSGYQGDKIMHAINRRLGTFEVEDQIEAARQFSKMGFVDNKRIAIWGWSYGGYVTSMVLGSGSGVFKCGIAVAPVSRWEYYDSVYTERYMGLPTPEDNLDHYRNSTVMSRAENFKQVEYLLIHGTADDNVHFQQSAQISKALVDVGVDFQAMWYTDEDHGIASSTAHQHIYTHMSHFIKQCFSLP

inhibition at 1 µM (DPP IV)	inhibition at 10 µM (DPP IV)	Structure (SMILES)	% Reduction Cholesterol [1]	inhibition in vivo at 50 mg/kg ([1]; read-out: % Reduction Glucose)	inhibition in vivo at 50 mg/kg [1, 2]	other results
–	–	CN1C(=O)OCC1Cc1ccc(Oc2ccc(/C=C3/SC(=S)NC3=O)cc2Cl)cc1 (stereo not drawn) [Example 40, 4-(4-{2-chloro-4-[(4-oxo-2-thioxo-1,3-thiazolidin-5-ylidene)methyl]phenoxy}benzyl)-3-methyl-1,3-oxazolidin-2-one]	NR	34.2%	17.8%	–
–	–	CCN1C(=O)OCC1Cc1ccc(Oc2ccc(CC3SC(=O)NC3=O)cc2)cc1 (stereo not drawn) [Example 62, 5-(4-{4-[(3-ethyl-2-oxo-1,3-oxazolidin-4-yl)methyl]phenoxy}benzyl)-1,3-thiazolidine-2,4-dione]	NR	36.2%	24.7%	–
–	–	CCN1C(=O)OCC1Cc1ccc(Oc2ccc(/C=C3\C(=O)Nc4ccccc43)cc2)cc1 (stereo not drawn) [Example 5]	–	–	–	inhibition at 1 µM (TNF-α): 1.72%; inhibition at 10 µM (TNF-α): 9.77%
–	–	CCN1C(=O)OCC1Cc1ccc(Oc2ccc(/C=C3/SC(=O)NC3=O)cc2)cc1 (stereo not drawn) [Example 3, 5-(4-{4-[(3-ethyl-2-oxo-1,3-oxazolidin-4-yl)methyl]phenoxy}benzylidene)-1,3-thiazolidine-2,4-dione]	NR	–	3.8%	% Reduction Glucose [1]: NR
–	–	CCN1C(=O)OCC1Cc1ccc(Oc2ccc(CC3C(=O)Nc4ccccc43)cc2C(F)(F)F)cc1 (stereo not drawn) [Example 65]	–	–	–	inhibition at 1 µM (TNF-α): 4.6%; inhibition at 10 µM (TNF-α): 1.67%
2.44%	7.64%	CN1C(=O)OCC1Cc1ccc(Oc2ccc(CC3C(=O)Nc4ccccc43)cc2C(F)(F)F)cc1 (stereo not drawn) [Example 75]	–	–	–	–
4.77%	7.25%	O=C1NC(Cc2ccc(Oc3ccc(/C=C4/SC(=O)NC4=O)cc3F)cc2)CO1 (stereo not drawn) [Example 31, 5-(3-fluoro-4-{4-[(2-oxo-1,3-oxazolidin-4-yl)methyl]phenoxy}benzylidene)-1,3-thiazolidine-2,4-dione]	–	–	–	–
9.52%	-0.7%	CN1C(=O)OCC1Cc1ccc(Oc2ccc(/C=C3/SC(=S)NC3=O)cc2)cc1 (stereo not drawn) [Example 34, 3-methyl-4-(4-{4-[(4-oxo-2-thioxo-1,3-thiazolidin-5-ylidene)methyl]phenoxy}benzyl)-1,3-oxazolidin-2-one]	NR	50.9%	73.4%	–
–	–	CN1C(=O)OCC1Cc1ccc(Oc2ccc(CC3SC(=S)N(CC(=O)O)C3=O)cc2C(F)(F)F)cc1 (stereo not drawn) [Example 86]	NR	48.8%	15.5%	–
1.99%	9.92%	CN1C(=O)OCC1Cc1ccc(Oc2ccc(/C=C3/SC(=S)NC3=O)cc2C(F)(F)F)cc1 (stereo not drawn) [Example 55]	–	–	–	–
–	–	CN1C(=O)OCC1Cc1ccc(Oc2ccc(CC3SC(=O)NC3=O)cc2C(F)(F)F)cc1 (stereo not drawn) [Example 71, 4-{4-[(3-methyl-2-oxo-1,3-oxazolidin-4-yl)methyl]phenoxy)-3-(trifluoromethylbenzyl]-1,3-thiazolidine-2,4-dione]	NR	49.9%	–	% Reduction Triglycerides [1]: NR
–	–	CN1C(=O)OCC1Cc1ccc(Oc2ccc(/C=C3\C(=O)Nc4ccccc43)c(Cl)c2)cc1 (stereo not drawn) [Example 16]	–	–	–	inhibition at 1 µM (TNF-α): 6.6%
–	–	CN1C(=O)OCC1Cc1ccc(Oc2ccc(/C=C3/SC(=S)N(CC(=O)O)C3=O)cc2Cl)cc1 (stereo not drawn) [Example 41, [4-oxo-5-(3-chloro-4-{4-[(3-methyl-2-oxo-1,3-oxazolidin-4-yl)methyl]phenoxy}benzylidene)-2-thioxo-1,3-thiazolidin-3-yl]acetic acid]	NR	66.5%	–	% Reduction Triglycerides [1]: NR
–	–	CCN1C(=O)OCC1Cc1ccc(Oc2ccc(/C=C3/SC(=S)N(CC(=O)O)C3=O)cc2)cc1 (stereo not drawn) [Example 37]	NR	22.5%	–	% Reduction Triglycerides [1]: NR
-1.26%	12.4%	CCN1C(=O)OCC1Cc1ccc(Oc2ccc(/C=C3/SC(=S)NC3=O)cc2C(F)(F)F)cc1 (stereo not drawn) [Example 59]	–	–	–	–
